The results in this text go back to US20050267204A1, “Synergistic gold-containing compositions” (MEDICAL INNOVATIONS LIMITED, priority 1996, published 2005).

For assay [1], the system named is TPA-induced inflammatory cell infiltration into the dermis. The assay is described as follows: Inhibition of TPA-induced inflammatory cell infiltration into the dermis of mice. In kind it is in vivo, BALB/c mice. As to conditions: for Synergistic factor: IC50 without auranofin divided by IC50 with auranofin (0.2%); for IC50 / Emax: Mus musculus; for Emax: read-out: Emax (% inhibition); for Relative potency: hydrocortisone acetate = 1.0. The protocol:
(§1) The mice were housed in stainless steel cages, 6 mice per cage under normal laboratory conditions (room temperature at about 22° C.) at least 7 days before the experiments for acclimatization. Food and water were allowed ad libitum throughout the experiment period. The backs of the mice were shaved with an electric clipper two days before each treatment and only those mice showing no hair regrowth were used (i.e., the mice in the resting phase of the hair growth cycle were selected). During treatment, the mice were held with their tails and put on top of the cage so that they grasped the cage and rested there. The solutions were applied to an area approximately 2 cm×2 cm on the shaved back of the mice by using a “Pipetman” to apply the solution. If auranofin ointment or ointment base was applied, the amount was standardized by using a microspatula which was crimped at one end, the ointment was then put into the ridge and the excess removed by means of another microspatula and applied sparingly twice a day. After a fixed time, the mice were killed routinely by cervical dislocation between 9 a.m. and 11 a.m. to avoid variations due to circadian rhythms, and an area (1 cm×1 cm) was excised from the centre of the treated area by scalpel and scissors. The rest of the tissues were disposed by combustion. The tissues were then fixed, embedded, sectioned and stained.
Infiltration of inflammatory cells was determined by the same image analysis system using the section taken from the block of mouse skin embedded in paraffin wax or Spurr's resin and stained with haematoxylin and eosin or toluidine blue respectively. For each section, 10 fields, unless otherwise stated, were chosen randomly and the cell density per mm^2 of field determined. The average value for the 10 fields was obtained and entered as one value for each mouse. The mean and SEM for the six mice in each treatment group were calculated.
The measurement of the inflammatory cell infiltration included the background values which included other materials in the dermis stained in the same way.
(§2) The percent inhibition of drug on TPA-induced skin responses (i.e., epidermal hyperplasia, inflammatory cell infiltration and skin-fold thickness) was calculated by using the following formula: [formula]
(§3) This provides estimates of (a) the potency, (b) the efficacy or maximum effect (Emax) and the slope of the log concentration-response curve by using Hill coefficient (γ). The Hill Equation may be expressed as follows: [formula] where IC50 is the drug concentration producing 50% of the maximal response and Emax refers to the maximal effect produced by the drug and is also termed efficacy. Efficacy is the measurement of the intrinsic ability of a drug to initiate a response once it occupies receptor sites. […] The Hill coefficient (γ) measures the slope of the dose-effect curve which can be markedly influenced by the shape of the curve that describes the binding of the drug to the receptor. For many drugs, y lies between 0.6 and 1.5. […] On the other hand, when γ is less than 1, with a shallow hyperbolic concentration effect relationship, the activity occurs over a wide range of drug levels.
(§4) In the present study, concentration-response curves were obtained for a series of corticosteroids. In these experiments, curve fitting was accomplished using a computer programme called “The Scientist” (MicroMath Scientific Software, Salt Lake City, Utah, USA.) in which the parameters, Emax, IC50 and Hill coefficient (γ) for each steroids were estimated by using non-linear regression and least square fits.
Mice were divided into treatment groups. TPA and corticosteroids were premixed to the concentrations required and applied to the backs of mice immediately.

Assay [2] relates to TPA-induced epidermal hyperplasia. Description: Inhibition of TPA-induced epidermal hyperplasia (epidermal thickness) on back skin of mice. The format is in vivo, BALB/c mice. The following applies: for Synergistic factor: IC50 without auranofin divided by IC50 with auranofin (0.2%); for Emax: read-out: Emax (% inhibition); for Synergism with auranofin, epidermal hyperplasia (in words): auranofin (0.2%) co-administered; for Relative potency: hydrocortisone acetate = 1.0; for Percent increase in the apparent potency of the steroid: in presence of auranofin (0.2%). As for the experimental part: as §1
Epidermal thickness was determined by image analysis. This image analysis system was a minicomputer (Tracor Northern TN8500) attached to a light microscope (Zeiss Axioplan) and a camcorder (Sony DXC-3000P). Sections were taken from each tissue block and 20 measurements were taken at fixed intervals from each section. The average value for the 20 measurements was obtained and entered as one value for each mouse. The mean and SEM for the six mice in each treatment group were calculated.
as §2, §3, §4
Mice were divided into treatment groups. TPA and corticosteroids were premixed to the concentrations required and applied to the backs of mice immediately. For those steroids not very soluble in acetone (i.e., betamethasone, dexamethasone, hydrocortisone and hydrocortisone acetate), the drugs were dissolved in 100 μL dimethylformamide before further dilution with acetone. The efficacy of corticosteroids in inhibiting epidermal hyperplasia, inflammatory cell infiltration and skin-fold thickness was assessed as described previously. Concentration-response curves were determined after computer-fitting of data.

[3] abbreviates: from Hill equation, concentration that produced 50% of Emax, read-out: IC50 for inhibition of inflammatory cell infiltration in the dermis (M × 10^−4).
[4] abbreviates: read from concentration-response curve, concentration that inhibited 50% of the TPA effect, read-out: IC50 for inhibition of inflammatory cell infiltration in the dermis (M × 10^−4).
The mark [5] stands for this setting: topical, Hill equation fit, means ± SD, steroid premixed with TPA, topical, read-out: IC50 (M × 10^−4).
Where [6] appears, read: with auranofin (0.2%), from computer fitted graph, means ± SD, read-out: Apparent IC50 (M × 10^−4) with auranofin.
[7] abbreviates: without auranofin, from computer fitted graph, means ± SD, read-out: Apparent IC50 (M × 10^−4) without auranofin.
Setting [8] is: Hill equation fit, means ± SD, steroid premixed with TPA, topical.
The mark [9] stands for this setting: Mus musculus, from Hill equation, concentration that produced 50% of Emax, read-out: IC50 for inhibition of epidermal thickening (M × 10^−4).
The mark [10] stands for this setting: Mus musculus, read from concentration-response curve, concentration that inhibited 50% of the TPA effect, read-out: IC50 for inhibition of epidermal thickening (M × 10^−4).
Where [11] appears, read: Mus musculus, topical, Hill equation fit, means ± SD, steroid premixed with TPA, topical, read-out: IC50 (M × 10^−4).
The mark [12] stands for this setting: Mus musculus, with auranofin (0.2%), from computer fitted graph, means ± SD, read-out: Apparent IC50 (M × 10^−4) with auranofin.
Setting [13] is: Mus musculus, without auranofin, from computer fitted graph, means ± SD, read-out: Apparent IC50 (M × 10^−4) without auranofin.
[14] abbreviates: Mus musculus, Hill equation fit, means ± SD, steroid premixed with TPA, topical.

“Also recorded” adds a separate entry of the source. Like-named read-outs stand apart in the source and are kept apart here.

As for `C[C@]12CCC(=O)C=C1CC[C@@H]1[C@@H]2[C@@H](O)C[C@@]2(C)[C@H]1CC[C@]2(O)C(=O)CO` [Hydrocortisone, hydrocortisone], the Synergistic factor in assay [1] is 1.94; in assay [2] it was 2.05. The IC50 is 6150 µM in assay [1] (setting [3]); 6000 µM in assay [1] (setting [4]); 6150 ± 966 µM in assay [1] (setting [5]); 3100 ± 412 µM in assay [1] (setting [6]); 6000 ± 966 µM in assay [1] (setting [7]); 4620 µM in assay [2] (setting [9]). The IC50 in assay [2] (setting [10]) was 4510 µM; in assay [2] (setting [11]), 4620 ± 1320 µM; in assay [2] (setting [12]), 2200 ± 1120 µM; in assay [2] (setting [13]), 4500 ± 1320 µM. The Emax in assay [1] (setting [8]) amounted to 100%; in assay [2] (setting [14]), 99 ± 9.54%. Further, the Relative potency in assay [1] (from Hill-equation IC50) is 1.26; in assay [1] (from IC50 read from curve) it was 1.83; in assay [2] (from Hill-equation IC50) it was 0.79; in assay [2] (from IC50 read from curve), 1.55. Moreover, the “Potency for inhibition of TPA-induced inflammatory cell infiltration (in words)” value in assay [1] (ranking in text) is “low to medium potencies”. In assay [2], the “Synergism with auranofin, epidermal hyperplasia (in words)” value (from here on “Synergism with auranofin”) was “minor degree of synergism”. Further, the “Percent increase in the apparent potency of the steroid” value (“Percent increase” for short) in assay [2] was found to be 100%. In assay [2] (ranking in text), the “Potency for inhibition of TPA-induced epidermal hyperplasia (in words)” value is listed as “low to medium potencies”.

With `C[C@H]1C[C@H]2[C@@H]3CCC4=CC(=O)C=C[C@]4(C)[C@@]3(F)[C@@H](O)C[C@]2(C)[C@@]1(O)C(=O)CO` [Betamethasone, betamethasone], the IC50 in assay [1] (setting [3]) worked out at 1310 µM; in assay [1] (setting [4]), 2100 µM; in assay [1] (setting [5]) it was 1310 ± 165 µM; in assay [2] (setting [9]) it was 2720 µM; in assay [2] (setting [10]) it was 5000 µM; in assay [2] (setting [11]), 1380 µM. The Emax in assay [1] (setting [8]) was 74.5 ± 3.29%; in assay [2] (setting [14]), 94.2 ± 7.33%. The Relative potency in assay [1] (from Hill-equation IC50) is 5.89; in assay [1] (from IC50 read from curve) it was 5.23; in assay [2] (from Hill-equation IC50) it was 1.35; in assay [2] (from IC50 read from curve), 1.40.

Regarding `CC1(C)O[C@@H]2C[C@H]3[C@@H]4C[C@H](F)C5=CC(=O)C=C[C@]5(C)[C@@]4(F)[C@@H](O)C[C@]3(C)[C@]2(C(=O)CO)O1` [Fluocinolone acetonide, fluocinolone acetonide], the Synergistic factor was determined as 2.27 in assay [1] and 13.13 in assay [2]. In addition, the IC50 came out at 16 µM in assay [1] (setting [3]); 25 µM in assay [1] (setting [4]); 16 ± 2 µM in assay [1] (setting [5]); 11 ± 1.3 µM in assay [1] (setting [6]); 25 ± 0.2 µM in assay [1] (setting [7]); 39 µM in assay [2] (setting [9]). The IC50 in assay [2] (setting [10]) was found to be 21 µM; in assay [2] (setting [11]), 39 ± 14 µM; in assay [2] (setting [12]), 1.6 ± 0.2 µM; in assay [2] (setting [13]), 21 ± 14 µM. Also, the maximal response (Emax) stood at 79.6 ± 2.41% in assay [1] (setting [8]) and 89.6 ± 6.93% in assay [2] (setting [14]). In addition, the Relative potency in assay [1] (from IC50 read from curve) was found to be 440; in assay [2] (from Hill-equation IC50), 94.03; in assay [2] (from IC50 read from curve), 333.33. Further, the “Potency for inhibition of TPA-induced inflammatory cell infiltration (in words)” value is “most potent agent” in assay [1] (ranking in text) and “strong to very strong anti-inflammatory effect” in assay [1] (ranking in text, listed as fluocinolone acetonide). For the same compound, the “Synergism with auranofin” value in assay [2] is on record as “massive synergism”. The “Percent increase” value in assay [2] is 1,300%. The “Potency for inhibition of TPA-induced epidermal hyperplasia (in words)” value in assay [2] (ranking in text) is “strong to very strong potencies”.

Turning to `CCC(=O)OCC(=O)[C@@]1(OC(=O)CC)[C@@H](C)C[C@H]2[C@@H]3CCC4=CC(=O)C=C[C@]4(C)[C@@]3(F)[C@@H](O)C[C@@]21C` [Betamethasone dipropionate, betamethasone dipropionate], the “Potency for inhibition of TPA-induced inflammatory cell infiltration (in words)” value in assay [1] is reported as “medium to strong potencies; also recorded: strong to very strong anti-inflammatory effect”. The figures for the Synergistic factor in assay [1] and in assay [2] were 4.44 and 56.0, respectively. Moreover, the IC50 in assay [1] (setting [3]) is 29 µM; in assay [1] (setting [4]) it was 40 µM; in assay [1] (setting [5]), 29 ± 6 µM; in assay [1] (setting [6]) it was 9 ± 1.6 µM; in assay [1] (setting [7]), 40 ± 6 µM; in assay [2] (setting [9]), 81 µM. The IC50 was 140 µM in assay [2] (setting [10]), 81 ± 36 µM in assay [2] (setting [11]), 2.5 ± 0.3 µM in assay [2] (setting [12]) and 140 ± 36 µM in assay [2] (setting [13]). For the same compound, the maximal response (Emax) in assay [1] (setting [8]) was 90.8 ± 3.71%; in assay [2] (setting [14]), 95.6 ± 6.55%. Further, the Relative potency is reported as 266.66 in assay [1] (from Hill-equation IC50), 275.0 in assay [1] (from IC50 read from curve), 45.27 in assay [2] (from Hill-equation IC50) and 50.0 in assay [2] (from IC50 read from curve). In assay [1] (in presence of auranofin (0.2%), Table 10), the “Increase in apparent IC50” value was 400-500%. For the same compound, the “Potency for inhibition of TPA-induced epidermal hyperplasia (in words)” value in assay [2] is given as “medium to strong potencies; also recorded: strong to very strong potencies”. Further, the “Inhibition of TPA effect (epidermal hyperplasia)” value in assay [2] (1×10^−5 M combined with auranofin (0.2%), FIG. 1) is “about 65%”. Besides, the inhibition at 10 µM in assay [2] (Mus musculus, 1×10^−5 M alone, FIG. 1, read-out: Inhibition of TPA effect (epidermal hyperplasia)) is ~20%. Also, the “Ratio of concentration without auranofin to concentration with auranofin for the same effect” value in assay [2] (about 65% inhibition level) was determined as 50 times. The “Synergism with auranofin” value in assay [2] is reported as “massive synergism”. In assay [2], the “Percent increase” value was 5,600%. The “Concentration that, in the absence of auranofin, produced the same effect as the combination” value in assay [2] (same effect as 1×10^−5 M with auranofin (0.2%)) was 500 µM.

In the case of `CC[PH](CC)(CC)[Au][S][C@@H]1O[C@H](COC(C)=O)[C@@H](OC(C)=O)[C@H](OC(C)=O)[C@H]1OC(C)=O` [Auranofin, (1-thio-p-D-glucopyranose 2,3,4,6-tetraacetato-S)-(triethylphosphine)-Au(I)], in assay [2] (auranofin (0.2%) alone, FIG. 1), the “Inhibition of TPA-induced epidermal hyperplasia” value is “about 10%”.

Usually Emax stands for the maximal effect, on the per cent scale that the assay sets. For orientation: inhibition means the share of the control response that was lost under treatment.
